The OligoGym collection
Where “and” joins values, the source holds several entries; their conditions need not be identical. Identical values can stand only once. After the bases stand the sugars from the 5' end (letter, count) and the backbone: PS all phosphorothioate, else s phosphorothioate and o phosphodiester by linkage. Methylation of C is not given here. e = 2'-O-(2-methoxyethyl) (MOE); k = constrained ethyl (cEt); d = 2'-deoxy (DNA)

Target: APOL1
Settings: ASO

| Sequence | target mRNA inhibition (A431, 0.0625 µM) | target mRNA inhibition (A431, 0.25 µM) | target mRNA inhibition (A431, 1 µM) | target mRNA inhibition (A431, 2 µM) | target mRNA inhibition (A431, 0.0156 µM) | target mRNA inhibition (A431, 0.04 µM) |
| --- | --- | --- | --- | --- | --- | --- |
| CAAGTCAGTACAGAGC (sugars k4 d9 k3, PS) | 57% | 82% | 94% |  |  |  |
| CACATCATTGGGTTAT (sugars k4 d9 k3, PS) | 65% | 84% | 90% |  |  |  |
| CACATCATTGGGTTAT (sugars kkdddddkekeddddd, PS) |  |  |  | 77% |  |  |
| CACATCATTGGGTTAT (sugars kkddddekekeddddd, PS) |  |  |  | 81% |  |  |
| CACATCATTGGGTTAT (sugars kkkddddkekekdddd, PS) |  |  |  | 58% |  |  |
| CACCATAGCACGAAGC (sugars k4 d9 k3, PS) | 23% | 53% | 72% |  |  |  |
| CACTTTACATGCACGA (sugars kkddddddddddkeke, PS) | 35% | 66% | 87% |  | 16% |  |
| CACTTTATACCAGTGT (sugars k2 d4 e3 k2 d5, PS) |  |  |  | 0% |  |  |
| CACTTTATACCAGTGT (sugars kkkddddkekekdddd, PS) |  |  |  | 11% |  |  |
| CAGATGGGTACTTCTG (sugars kkddddkekekkdddd, PS) |  |  |  | 10% |  |  |
| CAGCATTGAGTACAAC (sugars k3 d10 k3, PS) | 38% | 58% | 84% |  |  |  |
| CAGTACAGAGCAGGAT (sugars k4 d9 k3, PS) | 59% | 82% | 94% |  |  |  |
| CAGTTTTGTAAGTGCA (sugars kekddddeekkddddd, PS) | 73% | 92% | 96% | 96% | 39% |  |
| CAGTTTTGTAAGTGCA (sugars kkdddddkekeddddd, PS) | 53% | 84% | 89% | 94% | 25% |  |
| CAGTTTTGTAAGTGCA (sugars kkkddddkekeddddd, PS) |  |  |  | 92% |  |  |
| CATTCAGAATTTCCAC (sugars k2 d4 e3 k2 d5, PS) |  |  |  | 78% |  |  |
| CATTCAGAATTTCCAC (sugars kkddddekekeddddd, PS) |  |  |  | 87% |  |  |
| CATTCAGAATTTCCAC (sugars kkddddkekekddddd, PS) |  |  |  | 76% |  |  |

| Sequence | target mRNA inhibition (A431, 0.0625 µM) | target mRNA inhibition (A431, 0.25 µM) | target mRNA inhibition (A431, 1 µM) | target mRNA inhibition (A431, 2 µM) | target mRNA inhibition (A431, 0.0156 µM) | target mRNA inhibition (A431, 0.04 µM) |
| --- | --- | --- | --- | --- | --- | --- |
| CATTCAGAATTTCCAC (sugars kkddddkekekkdddd, PS) |  |  |  | 57% |  |  |
| CATTTGGAGATCTGGC (sugars k4 d9 k3, PS) | 57% | 74% | 92% |  |  |  |
| CCACTTGAGTCATTTG (sugars k4 d9 k3, PS) | 40% | 72% | 90% |  |  |  |
| CCGTCAATATATTCTT (sugars kkkddddkekeddddd, PS) |  |  |  | 97% |  |  |
| CGCAATGCTGACTTGG (sugars k3 d4 k3 e1 d5, PS) | 61% | 83% | 92% | 94% | 34% | 50% |
| CGCAATGCTGACTTGG (sugars kkddddkekekddddd, PS) |  |  |  | 83% |  |  |
| CGTCAATATATTCTTT (sugars k3 d4 k3 e1 d5, PS) |  |  | 96% and 95% | 95% |  |  |
| CGTCAATATATTCTTT (sugars kkdddddkekeddddd, PS) |  |  |  | 87% |  |  |
| CGTCAATATATTCTTT (sugars kkddddkdkdkddddd, PS) |  |  |  | 91% |  |  |
| CGTCAATATATTCTTT (sugars kkkddddkekeddddd, PS) | 72% | 90% | 96% and 95% | 94% | 35% | 53% and 50% |
| CGTCAATATATTCTTT (sugars kkkddddkekekdddd, PS) | 55% | 84% | 93% | 94% | 25% |  |
| CGTGTTATATTTGATC (sugars k2 d4 e3 k2 d5, PS) |  |  |  | 74% |  |  |
| CGTGTTATATTTGATC (sugars kkkddddkekekdddd, PS) |  |  |  | 82% |  |  |
| CTAATTTTCTGACTGT (sugars k2 d4 e3 k2 d5, PS) |  |  |  | 83% |  |  |
| CTAATTTTCTGACTGT (sugars k2 d4 e4 k2 d4, PS) |  |  |  | 88% |  |  |
| CTAATTTTCTGACTGT (sugars kkdddddkekeddddd, PS) | 56% | 80% | 93% | 98% | 27% |  |
| CTATTAGAGGGCTAGT (sugars k4 d9 k3, PS) | 32% and 19% | 52% and 39% | 71% and 51% |  |  |  |
| CTATTAGAGGGCTAGT (sugars kdddddkekekddddd, PS) |  |  |  | 28% |  |  |
